# Assay results from the supplement of paper PMC10307832.
# How the values were obtained:
# Test in all cases: relative viability (nuclei count vs DMSO), 5 days (fraction); higher = more cells survive
# BI-2536 + Crizotinib = compound: CC[C@@H]1C(=O)N(C)c2cnc(Nc3ccc(C(=O)NC4CCN(C)CC4)cc3OC)nc2N1C1CCCC1 [BI-2536] + C[C@@H](Oc1cc(-c2cnn(C3CCNCC3)c2)cnc1N)c1c(Cl)ccc(F)c1Cl [Crizotinib] (partner 1 µM)
# Method in brief: (§1)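 Lung cancer cell lines were pin-tool dosed in 1536-well plates on the day after seeding, with either a lone drug or a fixed anchor-drug dose plus five library-drug doses (not always all listed) in √10 steps. Nuclei were counted on 4× images after 5 days. Relative viability is the ratio of treated-well to vehicle-well nuclei counts, with each value a median of duplicate plates.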
# BI-2536 + Foretinib = compound: CC[C@@H]1C(=O)N(C)c2cnc(Nc3ccc(C(=O)NC4CCN(C)CC4)cc3OC)nc2N1C1CCCC1 [BI-2536] + COc1cc2c(Oc3ccc(NC(=O)C4(C(=O)Nc5ccc(F)cc5)CC4)cc3F)ccnc2cc1OCCCN1CCOCC1 [Foretinib] (partner 0.25 µM)
# Method in brief: as §1
# [1] = compound: CC1CC(=O)N(C2=CN=C(N=C2N1C3CCCC3)NC4=C(C=C(C=C4)C(=O)NC5CCN(CC5)C)OC)C [NPK76-II-72-1] + Cc1nc(Nc2ncc(C(=O)Nc3c(C)cccc3Cl)s2)cc(N2CCN(CCO)CC2)n1 [Dasatinib] (partner 0.075 µM)
# Method in brief: as §1
# [2] = compound: CC1CC(=O)N(C2=CN=C(N=C2N1C3CCCC3)NC4=C(C=C(C=C4)C(=O)NC5CCN(CC5)C)OC)C [NPK76-II-72-1] + Cc1nc(NC(=O)N2CCC[C@H]2C(N)=O)sc1-c1ccnc(C(C)(C)C(F)(F)F)c1 [Alpelisib] (partner 2 µM)
# Method in brief: as §1
Cell Line,relative viability (BI-2536 + Crizotinib; first compound 0.01 µM),relative viability (BI-2536 + Crizotinib; first compound 0.03162 µM),relative viability (BI-2536 + Crizotinib; first compound 0.1 µM),relative viability (BI-2536 + Crizotinib; first compound 0.3162 µM),relative viability (BI-2536 + Crizotinib; first compound 1 µM),relative viability (BI-2536 + Foretinib; first compound 0.01 µM),relative viability (BI-2536 + Foretinib; first compound 0.03162 µM),relative viability (BI-2536 + Foretinib; first compound 0.1 µM),relative viability (BI-2536 + Foretinib; first compound 0.3162 µM),relative viability (BI-2536 + Foretinib; first compound 1 µM),relative viability ([1]; first compound 0.01 µM),relative viability ([1]; first compound 0.03162 µM),relative viability ([1]; first compound 0.1 µM),relative viability ([1]; first compound 0.3162 µM),relative viability ([1]; first compound 1 µM),relative viability ([2]; first compound 0.01 µM),relative viability ([2]; first compound 0.03162 µM),relative viability ([2]; first compound 0.1 µM),relative viability ([2]; first compound 0.3162 µM),relative viability ([2]; first compound 1 µM)
201T,1.02,1.03,1,0.66,0.358,1.1,0.896,0.612,0.184,0.212,0.574,0.614,0.52,0.525,0.59,1.02,1.04,1.02,0.999,1.09
A549,0.727,0.565,0.119,0.0589,0.0294,0.962,0.901,0.427,0.0288,0.0231,–,–,–,–,–,0.84,0.824,0.889,0.716,0.769
A-427,0.927,0.678,0.535,0.119,0.0896,1.02,0.919,1.08,0.166,0.148,0.659,0.822,0.688,0.674,0.726,1.08,1.1,1.02,1.09,1.03
ABC-1,1.27,0.601,0.353,0.205,0.214,1.18,0.868,0.711,0.249,0.187,–,0.578,0.622,0.573,0.614,0.839,0.982,1.11,0.953,1
BEN,0.849,0.6,0.556,0.243,0.216,0.564,0.818,0.361,0.243,0.248,0.33,0.232,0.314,0.345,0.324,0.967,1.05,1.01,1.02,1.09
CAL-12T,0.532,0.295,0.409,0.128,0.155,1.08,0.951,0.503,0.173,0.187,0.369,0.379,0.364,0.319,0.391,1.13,1.15,0.877,1.03,1.27
COR-L23,0.684,0.566,0.226,0.11,0.0912,1.04,1.04,0.453,0.128,0.0906,0.439,0.533,0.554,0.433,0.526,0.638,0.821,0.815,0.815,0.822
COR-L 105,0.798,0.611,0.394,0.288,0.264,1.12,0.848,0.913,0.366,0.344,0.33,0.317,0.384,0.323,0.467,0.908,0.907,1.13,0.905,1.13
